For this assay, the system named is 1st-stage larvae of Haemonchus contortus. The experiment in a line: Test for effect on motion of larvae of Haemonchus nematode. To be noted: 20 larvae per well, 27° C./95% RH for 4 days, corrected against DMSO negative control, duplicate. The method, then:
Test for Effect on Motion of Larvae of Haemonchus Nematode (Haemonchus contortus) The compound of the present invention was prepared as solutions in 100% DMSO at the final concentrations of 50 ppm, 5 ppm, 0.5 ppm, 0.05 ppm and 0.005 ppm. DMSO stands for dimethyl sulfoxide. A larval suspension containing 1st-stage larvae of Haemonchus contortus harvested by the Baermann technique (for example, see K. Nakazono et al., “Inclination of Baermann funnel wall and efficiency of nematode extraction” Proc. Assoc. Pl. Prot. Kyushu 33: 126-130 (1987)) was placed at a density of 20 larvae per well in a test plate, and 0.5 μL/well of the test solution containing the compound of the present invention diluted to a predetermined concentration was added to the test plate. The plate was kept under the conditions of 27° C./95% RH for 4 days. In the test, ivermectin was used for the positive control and DMSO was used for the negative control. The motor ability of the larvae was examined with an automatic analyzer equipped with an LCD camera. The inhibitory effect on the motion of the larvae in each treatment plot was corrected based on the inhibitory effect in the plot treated with DMSO only for the negative control. The EC50 value was calculated from the data on the corrected inhibitory effect on the motion of the larvae, and graded according to the criteria shown below. The test was conducted in duplicate per plot.
For the compound `CC(CNC(=O)c1ccccc1C(F)(F)F)c1ccc(Oc2ncc(C(F)(F)F)cc2Cl)cc1Cl` (racemic) [Compound 1-41], the “EC50 value of corrected inhibitory effect on the motion of the larvae, graded” value is on record as “C or higher”.

For the compound `CC(CNC(=O)c1ccccc1C(F)(F)F)c1ccc(Oc2ccc(C(F)(F)F)cn2)cc1Cl` (racemic) [Compound 1-42], the “EC50 value of corrected inhibitory effect on the motion of the larvae, graded” value was “C or higher”.

On to `CC(CNC(=O)c1ccccc1C(F)(F)F)c1ccc(Oc2ncc(Cl)cc2Cl)cc1Cl` (racemic) [Compound 1-43], for which the “EC50 value of corrected inhibitory effect on the motion of the larvae, graded” value is listed as “C or higher”.

For `CC(CNC(=O)c1ccccc1C(F)(F)F)c1ccc(-c2ccc(C(F)(F)F)cc2)cc1Cl` (racemic) [Compound 1-57], the “EC50 value of corrected inhibitory effect on the motion of the larvae, graded” value is listed as “C or higher”.

For the compound `CC(CNC(=O)c1ccccc1C(F)(F)F)c1ccc(-c2ccccc2)cc1Cl` (racemic) [Compound 1-58], the “EC50 value of corrected inhibitory effect on the motion of the larvae, graded” value is on record as “C or higher”.

`CC(CNC(=O)c1ccccc1C(F)(F)F)c1ccc(-c2ccncc2)cc1Cl` (racemic) [Compound 1-59]: the “EC50 value of corrected inhibitory effect on the motion of the larvae, graded” value is “C or higher”.

As for `COC(CNC(=O)c1ccccc1C(F)(F)F)c1ccc(Oc2ncc(C(F)(F)F)cc2Cl)cc1Cl` (racemic) [Compound 1-60], the “EC50 value of corrected inhibitory effect on the motion of the larvae, graded” value is on record as “C or higher”.

For the compound `COC(CNC(=O)c1ccccc1C(F)(F)F)c1ccc(Oc2ccc(C(F)(F)F)cn2)cc1Cl` (racemic) [Compound 1-61], the “EC50 value of corrected inhibitory effect on the motion of the larvae, graded” value is listed as “C or higher”.

As to `COC(CNC(=O)c1ccccc1C(F)(F)F)c1ccc(Oc2ncc(Cl)cc2Cl)cc1Cl` (racemic) [Compound 1-62], the “EC50 value of corrected inhibitory effect on the motion of the larvae, graded” value is “C or higher”.

On to `O=C(NCCc1ccc(Oc2ncc(Cl)cc2Cl)cc1Cl)c1ccccc1C(F)(F)F` [Compound 1-1], for which the “EC50 value of corrected inhibitory effect on the motion of the larvae, graded” value is given as “C or higher”.

Turning to `O=C(NCCc1ccc(Oc2ncc(Br)cc2Cl)cc1Cl)c1ccccc1C(F)(F)F` [Compound 1-2], the “EC50 value of corrected inhibitory effect on the motion of the larvae, graded” value is listed as “C or higher”.

As to `O=C(NCCc1ccc(Oc2nccnc2C(F)(F)F)cc1Cl)c1ccccc1C(F)(F)F` [Compound 1-3], the “EC50 value of corrected inhibitory effect on the motion of the larvae, graded” value is reported as “C or higher”.

With `O=C(NCCc1ccc(Oc2nccnc2Cl)cc1Cl)c1ccccc1C(F)(F)F` [Compound 1-4], the “EC50 value of corrected inhibitory effect on the motion of the larvae, graded” value is reported as “C or higher”.

For `O=C(NCCc1ccc(Oc2cnccn2)cc1Cl)c1ccccc1C(F)(F)F` [Compound 1-5], the “EC50 value of corrected inhibitory effect on the motion of the larvae, graded” value is listed as “C or higher”.

In the case of `COc1cc(OC)nc(Oc2ccc(CCNC(=O)c3ccccc3C(F)(F)F)c(Cl)c2)n1` [Compound 1-6], the “EC50 value of corrected inhibitory effect on the motion of the larvae, graded” value is given as “C or higher”.

Regarding `Cc1cc(C)nc(Oc2ccc(CCNC(=O)c3ccccc3C(F)(F)F)c(Cl)c2)n1` [Compound 1-7], the “EC50 value of corrected inhibitory effect on the motion of the larvae, graded” value was “C or higher”.

On to `O=C(NCCc1ccc(Oc2ccnc(Cl)n2)cc1Cl)c1ccccc1C(F)(F)F` [Compound 1-8], for which the “EC50 value of corrected inhibitory effect on the motion of the larvae, graded” value is listed as “C or higher”.

On to `O=C(NCCc1ccc(Oc2cc(Cl)nc(Cl)n2)cc1Cl)c1ccccc1C(F)(F)F` [Compound 1-9], for which the “EC50 value of corrected inhibitory effect on the motion of the larvae, graded” value is listed as “C or higher”.

`Cc1cc(Oc2ccc(CCNC(=O)c3ccccc3C(F)(F)F)c(Cl)c2)nc(Cl)n1` [Compound 1-10]: the “EC50 value of corrected inhibitory effect on the motion of the larvae, graded” value is on record as “C or higher”.

In the case of `Cc1cnc(Cl)nc1Oc1ccc(CCNC(=O)c2ccccc2C(F)(F)F)c(Cl)c1` [Compound 1-11], the “EC50 value of corrected inhibitory effect on the motion of the larvae, graded” value was “C or higher”.

On to `O=C(NCCc1ccc(Oc2ccc3ccccc3n2)cc1Cl)c1ccccc1C(F)(F)F` [Compound 1-13], for which the “EC50 value of corrected inhibitory effect on the motion of the larvae, graded” value was “C or higher”.

As to `O=C(NCCc1ccc(Oc2cnc3ccccc3n2)cc1Cl)c1ccccc1C(F)(F)F` [Compound 1-14], the “EC50 value of corrected inhibitory effect on the motion of the larvae, graded” value is on record as “C or higher”.

For `O=C(NCCc1ccc(Oc2nc3ccccc3s2)cc1Cl)c1ccccc1C(F)(F)F` [Compound 1-15], the “EC50 value of corrected inhibitory effect on the motion of the larvae, graded” value was “C or higher”.

For the compound `O=C(NCCc1ccc(Oc2nc3ccc(Cl)cc3s2)cc1Cl)c1ccccc1C(F)(F)F` [Compound 1-16], the “EC50 value of corrected inhibitory effect on the motion of the larvae, graded” value is listed as “C or higher”.

Regarding `O=C(NCCc1ccc(Oc2nc3ccccc3o2)cc1Cl)c1ccccc1C(F)(F)F` [Compound 1-17], the “EC50 value of corrected inhibitory effect on the motion of the larvae, graded” value is on record as “C or higher”.

`O=C(NCCc1ccc(Oc2ccccc2)cc1Cl)c1ccccc1C(F)(F)F` [Compound 1-18]: the “EC50 value of corrected inhibitory effect on the motion of the larvae, graded” value is “C or higher”.

`O=C(NCCc1ccc(Oc2ccc(C(F)(F)F)cc2)cc1Cl)c1ccccc1C(F)(F)F` [Compound 1-19]: the “EC50 value of corrected inhibitory effect on the motion of the larvae, graded” value is recorded as “C or higher”.

On to `O=C(NCCc1ccc(Oc2ncc(C(F)(F)F)cc2Cl)cc1Cl)c1ccccc1I` [Compound 1-20], for which the “EC50 value of corrected inhibitory effect on the motion of the larvae, graded” value is recorded as “C or higher”.

For the compound `O=C(NCCc1ccc(Oc2ccc(C(F)(F)F)cn2)cc1Cl)c1ccccc1I` [Compound 1-21], the “EC50 value of corrected inhibitory effect on the motion of the larvae, graded” value is given as “C or higher”.

On to `O=C(NCCc1ccc(Oc2ncc(Cl)cc2Cl)cc1Cl)c1ccccc1I` [Compound 1-22], for which the “EC50 value of corrected inhibitory effect on the motion of the larvae, graded” value is recorded as “C or higher”.

Take `O=C(NCCc1ccc(Oc2ncc(Br)cc2Cl)cc1Cl)c1ccccc1I` [Compound 1-23]: the “EC50 value of corrected inhibitory effect on the motion of the larvae, graded” value was “C or higher”.

Turning to `O=C(NCCc1ccc(Oc2nccnc2C(F)(F)F)cc1Cl)c1ccccc1I` [Compound 1-24], the “EC50 value of corrected inhibitory effect on the motion of the larvae, graded” value is given as “C or higher”.

On to `O=C(NCCc1ccc(Oc2nccnc2Cl)cc1Cl)c1ccccc1I` [Compound 1-25], for which the “EC50 value of corrected inhibitory effect on the motion of the larvae, graded” value is “C or higher”.

`O=C(NCCc1ccc(Oc2cnccn2)cc1Cl)c1ccccc1I` [Compound 1-26]: the “EC50 value of corrected inhibitory effect on the motion of the larvae, graded” value is given as “C or higher”.

In the case of `COc1cc(OC)nc(Oc2ccc(CCNC(=O)c3ccccc3I)c(Cl)c2)n1` [Compound 1-27], the “EC50 value of corrected inhibitory effect on the motion of the larvae, graded” value is on record as “C or higher”.

For `Cc1cc(C)nc(Oc2ccc(CCNC(=O)c3ccccc3I)c(Cl)c2)n1` [Compound 1-28], the “EC50 value of corrected inhibitory effect on the motion of the larvae, graded” value was “C or higher”.

For `O=C(NCCc1ccc(Oc2ccnc(Cl)n2)cc1Cl)c1ccccc1I` [Compound 1-29], the “EC50 value of corrected inhibitory effect on the motion of the larvae, graded” value is “C or higher”.

With `O=C(NCCc1ccc(Oc2cc(Cl)nc(Cl)n2)cc1Cl)c1ccccc1I` [Compound 1-30], the “EC50 value of corrected inhibitory effect on the motion of the larvae, graded” value was “C or higher”.

Turning to `Cc1cc(Oc2ccc(CCNC(=O)c3ccccc3I)c(Cl)c2)nc(Cl)n1` [Compound 1-31], the “EC50 value of corrected inhibitory effect on the motion of the larvae, graded” value was “C or higher”.

Consider `Cc1cnc(Cl)nc1Oc1ccc(CCNC(=O)c2ccccc2I)c(Cl)c1` [Compound 1-32], for which the “EC50 value of corrected inhibitory effect on the motion of the larvae, graded” value was “C or higher”.

For `O=C(NCCc1ccc(Oc2ccc3ccccc3n2)cc1Cl)c1ccccc1I` [Compound 1-34], the “EC50 value of corrected inhibitory effect on the motion of the larvae, graded” value is “C or higher”.

For the compound `O=C(NCCc1ccc(Oc2cnc3ccccc3n2)cc1Cl)c1ccccc1I` [Compound 1-35], the “EC50 value of corrected inhibitory effect on the motion of the larvae, graded” value is given as “C or higher”.

Consider `O=C(NCCc1ccc(Oc2nc3ccccc3s2)cc1Cl)c1ccccc1I` [Compound 1-36], for which the “EC50 value of corrected inhibitory effect on the motion of the larvae, graded” value is reported as “C or higher”.

Regarding `O=C(NCCc1ccc(Oc2nc3ccc(Cl)cc3s2)cc1Cl)c1ccccc1I` [Compound 1-37], the “EC50 value of corrected inhibitory effect on the motion of the larvae, graded” value is given as “C or higher”.

Consider `O=C(NCCc1ccc(Oc2nc3ccccc3o2)cc1Cl)c1ccccc1I` [Compound 1-38], for which the “EC50 value of corrected inhibitory effect on the motion of the larvae, graded” value is recorded as “C or higher”.

Consider `O=C(NCCc1ccc(Oc2ccccc2)cc1Cl)c1ccccc1I` [Compound 1-39], for which the “EC50 value of corrected inhibitory effect on the motion of the larvae, graded” value is reported as “C or higher”.

For the compound `O=C(NCCc1ccc(Oc2ccc(C(F)(F)F)cc2)cc1Cl)c1ccccc1I` [Compound 1-40], the “EC50 value of corrected inhibitory effect on the motion of the larvae, graded” value was “C or higher”.

On to `CC(C)(CNC(=O)c1ccccc1C(F)(F)F)c1ccc(Oc2ncc(C(F)(F)F)cc2Cl)cc1Cl` [Compound 1-44], for which the “EC50 value of corrected inhibitory effect on the motion of the larvae, graded” value was “C or higher”.

On to `CC(C)(CNC(=O)c1ccccc1C(F)(F)F)c1ccc(Oc2ccc(C(F)(F)F)cn2)cc1Cl` [Compound 1-45], for which the “EC50 value of corrected inhibitory effect on the motion of the larvae, graded” value was “C or higher”.

In the case of `CC(C)(CNC(=O)c1ccccc1C(F)(F)F)c1ccc(Oc2ncc(Cl)cc2Cl)cc1Cl` [Compound 1-46], the “EC50 value of corrected inhibitory effect on the motion of the larvae, graded” value was “C or higher”.

Take `O=C(NCC1(c2ccc(Oc3ncc(C(F)(F)F)cc3Cl)cc2Cl)CC1)c1ccccc1C(F)(F)F` [Compound 1-47]: the “EC50 value of corrected inhibitory effect on the motion of the larvae, graded” value is listed as “C or higher”.

Regarding `O=C(NCC1(c2ccc(Oc3ccc(C(F)(F)F)cn3)cc2Cl)CC1)c1ccccc1C(F)(F)F` [Compound 1-48], the “EC50 value of corrected inhibitory effect on the motion of the larvae, graded” value is “C or higher”.
